Read-outs that look alike come from different tables or passages of the source.
How the values were obtained:
in vitro [1] = conditions: human, calu-3 cells, CC50 IncuCyte
Description: (§1) Calu-3 (40.000/well), Huh7.5 (10.000/well) and CaCo2 (10.000/well) cells were seeded in 96-well plates in DMEM-Media. The cells were treated with the drug compounds at the indicated concentrations, negative control (non-treated), DMSO control and positive control (50% DMSO treated) were added, and plates were then stored in the IncuCyte® at 37 °C, 5 % CO2 for 72h measuring every 3 hours cell confluency via phase channel with 10x objective. For Analysis IncuCyte® S3 Software was used.
(§2) Plates were then stored in the IncuCyte® measuring every 3 hours cell confluency.

icSARS-CoV-2-mNG [2] = conditions: for Therapeutic range: CC50/IC50, CTG / Therapeutic range: CC50/IC50, IncuCyte / Therapeutic range: CC50/IC50, MTT: human, calu-3 cells
[3] = system: DENV type 2 reporter virus
icSARS-CoV-2-mNG [4] = assay: microbe, parasite or virus in culture; conditions: Severe acute respiratory syndrome coronavirus 2, Calu-3
Huh7.5 cells [5] = assay: Cell viability via live cell imaging (IncuCyte); conditions: read-out: CC50 IncuCyte, 72h, cell confluency
Description: as §1, §2

Calu-3 cells [6] = conditions: read-out: CC50 IncuCyte, 72h, cell confluency, 4320 min
Description: as §1, §2

icSARS-CoV-2-mNG [7] = system: icSARS-CoV-2-mNG
[8] = system: DENV type 2 reporter virus; assay: microbe, parasite or virus in culture; conditions: Dengue virus
in vitro [9] = conditions: human, caco-2
Description: as §1, §2

Calu-3 cells [10] = conditions: read-out: CC50 MTT, 72h
Huh7.5 cells [11] = conditions: read-out: CC50 MTT, 72h, 4320 min
in vitro [12] = conditions: human, huh7.5 cells, CC50 MTT

In the case of COc1[nH]c(=O)c(C(=O)C(C)CC(C)C(Cl)CCl)c(O)c1OC (centres unmarked) [Atpenin A5], the CC50 at 72 h (in vitro [1]; 72h, cell confluency) is reported as > 160 µM, the “Therapeutic range: CC50/IC50, CTG” value (icSARS-CoV-2-mNG [2]) is reported as “CTG: 1.72” and the “Therapeutic range: CC50/IC50, IncuCyte” value (icSARS-CoV-2-mNG [2]) is reported as “IncuCyte: > 320”. For the same compound, the “Therapeutic range: CC50/IC50, MTT” value (icSARS-CoV-2-mNG [2]) was “MTT: 24”, the “Therapeutic range: CC50/IC50, CTG” value ([3]; Dengue Virus in Huh7.5 cells, CC50 by CTG) was “CTG: 229.5” and the “Therapeutic range: CC50/IC50, IncuCyte” value ([3]; Dengue Virus in Huh7.5 cells, CC50 by IncuCyte) was “IncuCyte: 240.7”. The “Therapeutic range: CC50/IC50, MTT” value ([3]; Dengue Virus in Huh7.5 cells, CC50 by MTT) was “MTT: 375.2”, the IC50 (icSARS-CoV-2-mNG [4]) was 0.5 µM and the CC50 (Huh7.5 cells [5]) was 65 µM. For the same compound, the CC50 (Calu-3 cells [6]) was > 80 µM, the “SARS-CoV-2 infection (infection rate, mNG+/Hoechst+ cells)” value (shortened to “SARS-CoV-2 infection”) (icSARS-CoV-2-mNG [7]) was “inhibited SARS-CoV-2 infection of the cell lines in a dose-dependent manner” and the IC50 ([8]; Huh7.5, 24 h) was 0.27 µM. For the same compound, the CC50 at 72 h (in vitro [9]) was > 60 µM.
For CN(C)C(=N)N=C(N)N [Metformin], the “toxicity (staining of the nuclei, cell count)” value (icSARS-CoV-2-mNG [2]) was “without any cytotoxicity” and the IC50 (icSARS-CoV-2-mNG [4]) was 459 µM.
With [H]/N=C(/N)N/C(=N/[H])NCCc1ccccc1 [Phenformin, phenformin] the CC50 at 72 h (in vitro [1]) was 1500 µM, the CC50 (Calu-3 cells [10]) was 1520 µM and the “toxicity (staining of the nuclei, cell count)” value (icSARS-CoV-2-mNG [2]) was “without any toxicity”. For the same compound, the “Therapeutic range: CC50/IC50, CTG” value (icSARS-CoV-2-mNG [2]) was “CTG: 1306.4”, the “Therapeutic range: CC50/IC50, IncuCyte” value (icSARS-CoV-2-mNG [2]) was “IncuCyte: 867.1” and the “Therapeutic range: CC50/IC50, MTT” value (icSARS-CoV-2-mNG [2]) was “MTT: 876.3”. For the same compound, the “Therapeutic range: CC50/IC50, CTG” value ([3]; human, huh7.5 cells) was “CTG: 109.2”, the “Therapeutic range: CC50/IC50, IncuCyte” value ([3]; human, huh7.5 cells) was “IncuCyte: 59.9” and the “Therapeutic range: CC50/IC50, MTT” value ([3]; human, huh7.5 cells) was “MTT: 3.3”. The IC50 (icSARS-CoV-2-mNG [4]) was 1.73 µM, the CC50 (Huh7.5 cells [11]) was 61.2 µM and the “SARS-CoV-2 infection” value (icSARS-CoV-2-mNG [7]) was “inhibited SARS-CoV-2 infection of the cell lines in a dose-dependent manner”. The CC50 at 72 h (in vitro [12]) was 61 µM, the IC50 ([8]; Huh7.5) was 18.6 µM and the IC50 ([8]; Huh7.5, 24 h) was 18.6 µM.
For CC(C)Cc1nn(C)c(=O)c2c(SCCCO)n(Cc3cccc4ccccc34)cc12 [SR13800], the “toxicity (cell viability by Hoechst staining of the nucleus)” value (icSARS-CoV-2-mNG [7]) was “toxic”.
In the case of O[C@H]1[C@H](O)[C@@H](O)[C@H](O)[C@@H](O)[C@@H]1O [Scyllo-Inositol], the “SARS-CoV-2 infection” value (icSARS-CoV-2-mNG [7]) is reported as “did not show any activity”.

Reference: EP4268810A1 (priority 2022, dated 2023)
